SMILES strings stand for the structures.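 How tested: cells in 96-well plates exposed to compound for 48 hours at five concentrations. Here, GI50 denotes the concentration required for 50% inhibition of growth.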 Calls of active or inactive are those of the source. Cut-off read from the data, not from the text of the source: active = GI50 up to about 1.1 µM and inactive = higher.

This note sets out measurements from ChEMBL document CHEMBL1201862, “PubChem BioAssay data set” (2004).

Some test systems named below: 786-0; A549; ACHN; HCC 2998; HCT-116; HCT-15; HOP-62; LOX IMVI; MDA-MB-435; MDA-N; Malme-3M; NCI-H23; OVCAR-3; OVCAR-8; PC-3; SF-268; SK-MEL-5; SW-620; UACC-62; BT-549.
What all share (assay): inhibition of tumour cell growth, NCI panel, 48 h

Take `O=c1[nH]n(Cc2ccccc2)c2ccc([N+](=O)[O-])cc12`: the GI50 with 786-0 is 82.4 µM (inactive); with A549 it was 61 µM (inactive); in the test on ACHN, > 100 µM (inactive); in the test on HCC 2998, 36.3 µM (inactive); with HCT-116, 49.4 µM (inactive); with HCT-15, 56.1 µM. Moreover, the GI50 in the test with HOP-62 is > 100 µM (inactive); in the test on LOX IMVI, 88.7 µM (inactive); in the test with MDA-MB-435 it was 19.9 µM (inactive); in the test with MDA-N, 29.2 µM (inactive); with Malme-3M it was 44.5 µM (inactive); in the test with NCI-H23, 56.5 µM (inactive). For the same compound, the GI50 was > 100 µM (inactive) in the test with OVCAR-3; > 100 µM (inactive) in the test with OVCAR-8; 37.2 µM (inactive) in the test with PC-3; > 100 µM (inactive) with SF-268; 46.9 µM (inactive) in the test with SK-MEL-5; 48.9 µM (inactive) in the test on SW-620. Further, the GI50 in the test on UACC-62 is > 100 µM (inactive).

For the compound `O=C(NI1OC(=O)c2ccccc21)c1ccc(Cl)cc1`, the GI50 with 786-0 was > 100 µM (inactive); in the test with A549, > 100 µM (inactive); in the test with ACHN, > 100 µM (inactive); in the test with BT-549, > 100 µM (inactive); in the test on HCC 2998, 76.2 µM (inactive); in the test on HCT-116 it was > 100 µM (inactive). Also, the GI50 in the test with HCT-15 was 96.6 µM; with HOP-62 it was > 100 µM (inactive); in the test on LOX IMVI it was > 100 µM (inactive); in the test with MDA-MB-435, > 100 µM (inactive); with NCI-H23, > 100 µM (inactive); in the test with OVCAR-3 it was > 100 µM (inactive). The GI50 is > 100 µM (inactive) with OVCAR-8; > 100 µM (inactive) in the test with PC-3; > 100 µM (inactive) in the test with SF-268; > 100 µM (inactive) in the test on SK-MEL-5; 34.4 µM (inactive) in the test on SW-620; 51.6 µM (inactive) in the test on UACC-62.

As for `CCOC(=O)c1nc2ccccc2nc1Nc1cc(OC)c(OC)c(OC)c1`, the GI50 with 786-0, with A549, with ACHN, in the test on BT-549, in the test with HCC 2998 and in the test on HCT-116 was > 100 µM (inactive) throughout. The GI50 with HCT-15 is greater than 100 µM; in the test on HOP-62, > 100 µM (inactive); with MDA-MB-435 it was > 100 µM (inactive); in the test on MDA-N, > 100 µM (inactive); in the test with Malme-3M it was > 100 µM (inactive); in the test on NCI-H23 it was > 100 µM (inactive). Moreover, the GI50 with OVCAR-3, in the test on SF-268, in the test on SK-MEL-5 and with UACC-62 was > 100 µM (inactive) throughout.

Take `O=C(OCc1ccccc1CN1CCOCC1)c1ccc(Br)cc1`: the GI50 in the test on 786-0 is > 100 µM (inactive); with A549 it was 45.6 µM (inactive); in the test on ACHN, > 100 µM (inactive); with BT-549, 74.8 µM (inactive); in the test with HCC 2998 it was 46.5 µM (inactive); in the test with HCT-116, 32.6 µM (inactive). The GI50 in the test on HCT-15 was 57.1 µM; with HOP-62 it was 72.3 µM (inactive); in the test on LOX IMVI, 55 µM (inactive); in the test on MDA-MB-435, 31 µM (inactive); in the test on Malme-3M it was 23.3 µM (inactive); with NCI-H23 it was 39.4 µM (inactive). Further, the GI50 with OVCAR-3 is 31.8 µM (inactive); in the test on OVCAR-8, 85.1 µM (inactive); with PC-3, 85.5 µM (inactive); with SF-268, > 100 µM (inactive); in the test on SK-MEL-5, 12.2 µM (inactive); in the test with SW-620, > 100 µM (inactive). Besides, the GI50 with UACC-62 was 55 µM (inactive).

As for `O=C(CNc1ccccc1Cl)Nn1c(-c2ccccc2)nc2ccccc2c1=O`, the GI50 is 19.7 µM (inactive) in the test with 786-0; 44.8 µM (inactive) in the test on A549; 37.4 µM (inactive) in the test with ACHN; 12.8 µM (inactive) with BT-549; 19.5 µM (inactive) in the test on HCC 2998; 25.2 µM (inactive) with HCT-116. In addition, the GI50 in the test on HOP-62 is 27.9 µM (inactive); in the test with LOX IMVI it was 14.7 µM (inactive); in the test on MDA-MB-435, 18.5 µM (inactive); in the test on NCI-H23 it was 16.4 µM (inactive); in the test with OVCAR-3, 23.1 µM (inactive); in the test on OVCAR-8, 40.7 µM (inactive). In addition, the GI50 in the test with PC-3 is 20.7 µM (inactive); in the test on SF-268, 30.1 µM (inactive); in the test on SK-MEL-5, 10.2 µM (inactive); with SW-620 it was 19.8 µM (inactive); in the test on UACC-62, > 10 µM (inactive).

For `C=C(C)C1CC=C(C)C(=O)C1` (stereo unspecified) [CARVONE], the GI50 was > 100 µM (inactive) in the test on 786-0; > 100 µM (inactive) in the test with A549; > 100 µM (inactive) with ACHN; > 100 µM (inactive) with HCC 2998; > 100 µM (inactive) in the test on HCT-116; greater than 100 µM with HCT-15. The GI50 with HOP-62, in the test with LOX IMVI, with MDA-MB-435, in the test with MDA-N, in the test on Malme-3M and with NCI-H23 was > 100 µM (inactive) throughout. Moreover, the GI50 in the test with OVCAR-3, in the test on OVCAR-8, in the test on PC-3, with SF-268, in the test with SK-MEL-5 and in the test with SW-620 was > 100 µM (inactive) in each case.

For `CCC1(O)CC(OC2CC(N(C)C)C(OC3CC(O)C(OC4OC(C)C(=O)C=C4N)C(C)O3)C(C)O2)c2c(cc3c(c2O)C(=O)c2c(O)cccc2C3=O)C1C(=O)OC` (stereo unspecified), the GI50 with 786-0 is 0.00254 µM (active); with A549, 0.00272 µM (active); in the test on ACHN it was 0.0206 µM (active); with HCC 2998, 0.0153 µM (active); in the test with HCT-116 it was < 0.001 µM (active); with HCT-15, 0.241 µM. The GI50 with HOP-62 was 0.0184 µM (active); in the test with LOX IMVI, 0.046 µM (active); in the test on MDA-MB-435 it was 0.00583 µM (active); in the test with MDA-N, 0.00682 µM (active); in the test with Malme-3M it was 0.0508 µM (active); with NCI-H23, 0.104 µM (active). Moreover, the GI50 in the test on OVCAR-3 was 0.129 µM (active); in the test on OVCAR-8, 0.00415 µM (active); in the test on PC-3, 0.00566 µM (active); in the test on SF-268 it was 0.199 µM (active); in the test with SK-MEL-5 it was 0.00469 µM (active); with SW-620, < 0.001 µM (active). Besides, the GI50 with UACC-62 is 0.0121 µM (active).

Consider `COc1ccc(N2C(=O)/C(=C/c3ccc(N(CCC#N)CCC#N)cc3)N=C2c2ccccc2)c(OC)c1`, for which the GI50 is > 100 µM (inactive) in the test on 786-0; > 100 µM (inactive) in the test on ACHN; > 100 µM (inactive) with BT-549; > 100 µM (inactive) with HCC 2998; 69.2 µM (inactive) with HCT-116; 40.2 µM in the test on HCT-15. The GI50 in the test on MDA-MB-435 is > 100 µM (inactive); with MDA-N, > 100 µM (inactive); in the test with Malme-3M, > 100 µM (inactive); in the test on NCI-H23, 60.3 µM (inactive); with OVCAR-3, 98.4 µM (inactive); with OVCAR-8, 28.5 µM (inactive). For the same compound, the GI50 in the test on SF-268, in the test with SK-MEL-5, with SW-620 and in the test with UACC-62 was > 100 µM (inactive) throughout.

Take `S=C(Nc1cc(Cl)c(Cl)cc1Cl)SCc1ccccc1`: the GI50 in the test with 786-0 is 38.2 µM (inactive); in the test with A549, 30 µM (inactive); with ACHN, 20.5 µM (inactive); in the test with BT-549 it was 26.2 µM (inactive); in the test on HCT-116, 32.3 µM (inactive); in the test on HCT-15, 18.1 µM. Further, the GI50 was 26 µM (inactive) in the test on HOP-62; 19.8 µM (inactive) with MDA-MB-435; 28.2 µM (inactive) in the test with Malme-3M; 20.1 µM (inactive) in the test on NCI-H23; 21.8 µM (inactive) with OVCAR-3; 20.1 µM (inactive) in the test with OVCAR-8. Moreover, the GI50 with PC-3 was 32 µM (inactive); in the test with SF-268, 38.1 µM (inactive); with SK-MEL-5, 20.7 µM (inactive); in the test on SW-620, 35.2 µM (inactive); in the test with UACC-62 it was 66.5 µM (inactive).

`Cn1c2ccccc2c(=O)c2ccc(Cl)cc21`: the GI50 was > 10 µM (inactive) with 786-0; 6.01 µM (inactive) with A549; > 10 µM (inactive) with HCC 2998; > 10 µM (inactive) with HCT-116; greater than 10 µM in the test on HCT-15; > 10 µM (inactive) in the test on HOP-62. The GI50 with LOX IMVI, with MDA-MB-435, in the test with MDA-N, in the test on Malme-3M, in the test on NCI-H23 and with OVCAR-3 was > 10 µM (inactive) throughout. Also, the GI50 in the test with OVCAR-8, in the test with PC-3, in the test on SF-268, in the test with SK-MEL-5, with SW-620 and in the test on UACC-62 was > 10 µM (inactive) each time.

On to `CN(C)c1ccc(/C=C2\N=C(c3ccccc3)N(c3nc4ccc(Sc5ccccc5)cc4[nH]3)C2=O)cc1`, for which the GI50 in the test with 786-0 was 42.2 µM (inactive); in the test with A549, 41.5 µM (inactive); with ACHN, 81.8 µM (inactive); in the test on BT-549, 34.9 µM (inactive); with HCC 2998 it was 17.4 µM (inactive); in the test on HCT-116, 36.3 µM (inactive). Moreover, the GI50 is 36.5 µM with HCT-15; 33.1 µM (inactive) with HOP-62; 45.2 µM (inactive) in the test with LOX IMVI; 16.7 µM (inactive) in the test on MDA-MB-435; 99.8 µM (inactive) with Malme-3M; 47.1 µM (inactive) in the test with NCI-H23. For the same compound, the GI50 in the test with OVCAR-3 is 27.4 µM (inactive); in the test on OVCAR-8, 43 µM (inactive); with PC-3, 39.1 µM (inactive); in the test on SF-268, 43.8 µM (inactive); in the test with SK-MEL-5, 32.4 µM (inactive); in the test with SW-620, 34.6 µM (inactive). Further, the GI50 with UACC-62 is 22.5 µM (inactive).
